Laboratory results published in US20120004180A1, “METHOD OF PRODUCING A NOVEL OPIOID PEPTIDE” (priority 2008, published 2012).

Legend:
[1] = tested on: physical dependence; details: compared with morphine; cited from earlier work
[2] = tested on: pain; details: experiments on animals; intrathecal application in rats; cited from earlier work
[3] = tested on: thermal pain; experiment: Thermal pain sensitivity after subarachnoid administration via cannula; format: in vivo; details: rats, dose of 5 mg
Text: Two days prior to the experiments, rats were implanted with cannulae into the subarachnoid cavity. During the experiment, the analgesic activity was examined by administering the peptide analogue (N′-Tyrosyl-D-alanyl-glycyl-phenylalanyl, N″-alpha-methyl-4-(2-methylpropyl) benzenoacetyl-D-tryptophanyl)-hydrazide.

[4] = tested on: acute pain in mice with inflammation; experiment: Tail immersion in water heated to 55° C. in murine melanoma metastasis model with inflammation; format: in vivo; details: two weeks after murine melanoma cells into the hind limb, intraperitoneal injection 30 mg/kg
Experimental: In an animal metastasis model, inflammation was induced by administering around a million cells of murine melanoma into the hind limb. After two days, a progressing inflammation was observed, elicited by tumour take. After two weeks of tumour development, the analgesic activity of (N′-Tyrosyl-D-alanyl-glycyl-phenylalanyl, N″-salicyl-glycyl-D-tryptophanyl)-hydrazide was examined against acute pain caused by tail immersion in water heated to 55° C.

[5] = tested on: acute pain in mice with inflammation; experiment: Tail immersion in water at 55° C. in mice with Freund's adjuvant-induced inflammation; format: in vivo; details: one week after Freund's adjuvant into the limb, intravenous injection 20 mg/kg
Experimental: Inflammation was induced in mice through application of Freund's adjuvant into the limb. A progressing inflammation was observed after two days. After a week, the analgesic effects on acute pain of the peptide analogue HCl.Tyr-D-Ala-Gly-Phe-NHNH-(CBz-D-Trp-) were examined via the immersion of the tail in water at 55° C.

C[C@@H](NC(=O)[C@@H](N)Cc1ccc(O)cc1)C(=O)NCC(=O)N[C@@H](Cc1ccccc1)C(=O)NNC(=O)[C@H](Cc1ccccc1)NC(=O)CNC(=O)[C@@H](C)NC(=O)[C@@H](N)Cc1ccc(O)cc1 [biphalin]
habit-forming activity (physical dependence) [1]: much lesser habit-forming activity | analgesic activity [2]: significant analgesic activity

(N′-Tyrosyl-D-alanyl-glycyl-phenylalanyl, N″-alpha-methyl-4-(2-methylpropyl) benzenoacetyl-D-tryptophanyl)-hydrazide [Example III]
duration of elimination of sensitivity to thermal pain [3]: 1 h | sensitivity to thermal pain [3]: complete elimination

(N′-Tyrosyl-D-alanyl-glycyl-phenylalanyl, N″-salicyl-glycyl-D-tryptophanyl)-hydrazide [Example II]
pain reaction (analgesic activity against acute pain, tail immersion) [4]: completely mitigated

(N′-tyrosyl-D-alanyl-glycyl-phenylalanyl, N″-benzoxycarbonyl-D-tryptophanyl) hydrazide [Example I]
pain reaction (analgesic effect on acute pain, tail immersion) [5]: completely mitigated
